According to US5332733A, “Heterocyclically substituted piperazinoakylbenzoxazine and piperazinoalkylbenzothiazine compounds, processes for preparing them, and medicaments containing them” (Kali-Chemie Pharma GmbH, priority 1990, dated 1994):
Where two headings read alike, the source gives them in different places.

Assays:
mice = details: mouse, in vivo, 1440 min
Protocol: 2. Determination of Minimum Toxic Dose
Maximum doses of 300 mg/kg of the test substance were administered orally to male mice weighing 20-25 g. The animals were observed carefully for 3 hours for toxicity symptoms. In addition, all symptoms and deaths were recorded over a period of 24 hours after administration. Associated symptoms were also observed and recorded. If death or severe toxic symptoms were observed, additional mice were administered increasingly lower doses. The lowest dose which produced death or severe toxic symptoms is given in the following Table B as the minimum toxic dose.

histamine-(H1)-receptor = target: T1, histamine-(H1)-receptor (Cavia porcellus, UniProt P31389); experiment: Histamine-(H1)-receptor antagonism in vitro, histamine-induced contractions of isolated ileum; assay type: cell-based, guinea pig (Dunkin Hartley); details: test substance 10^-6 mole/l, histamine 5 × 10^-6 mole/l
T1 construct: Segments of the ileum 1.5 cm long from Dunkin Hartley guinea pigs; from tissue; host or cells: isolated ileum of Dunkin Hartley guinea pigs
Protocol: 3. Investigation of Anti-Histamine-(H1) Effect Based on Histamine-(H1)-Receptor Antagonism In Vitro
To investigate the histamine-(H1)-receptor antagonism of the test substances, the inhibiting effect of the substances on histamine-induced contractions of the smooth muscle was determined in vitro on the isolated organ. Isolated strips of organ from the ileum are suitable for this purpose. In an organ bath of physiological saline solution the smooth muscle strips react to the addition of histamine by contracting. […] The extent of regression of the contraction is an indication of the anti-histamine-(H1) activity of the compounds. The investigation was carried out analogously to the method originally described by Magnus (Pfluegers Arch. 102, 123 (1904)).
Procedure for determining the smooth muscle contraction inhibiting effect on isolated guinea pig ileum induced by a 5×10^-6 molar histamine concentration
Segments of the ileum 1.5 cm long from Dunkin Hartley guinea pigs having a body weight of 300 500 g were used for the test. Each strip was placed in an organ bath of 10 ml of physiological saline solution according to Krebs-Henseleit and attached to a conventional apparatus for isotonic measurement of changes in length of the ileum strips (automated Celaster measuring apparatus), so that the tissue was under 1 g of tension. The bath was kept at a pH of 7.4 and gassed with a mixture of 5% CO2 and 95% O2. After an equilibration phase, an isotonic contraction of the tissue was induced by adding histamine in a final concentration of 5×10^-6 mole/liter and washing it out again after a contact time of 30 seconds. Only tissues samples from which three reproducible contractions were obtained at 10 minute intervals were used in the subsequent test. The test substances were then added in a final concentration of 10^-6 mole/liter, and after 30 seconds contact time histamine was again added up to a concentration of 5×10^-6 mole/liter. The resulting contractions were measured over 30 seconds. The tissue was then washed several times over a period of 10 minutes. Histamine was then added again to stimulate a contraction. The resulting contractions were again measured over 30 seconds. The difference between the amplitude of the contraction obtained by histamine addition alone and the amplitude of the contraction obtained in the presence of the test substance was determined and expressed in terms of % inhibition.
The inhibiting effects on the contractions induced by histamine 30 seconds after administration of the test substance and on the contractions induced by the addition of histamine 10 minutes later are listed in the table.

[1] = system: PAF-induced aggregation of rabbit blood platelets; experiment: Anti-PAF activity in vitro, PAF-induced platelet aggregation; assay type: cell-based, rabbit (New Zealand hybrids); details: Oryctolagus cuniculus, test substance 10^-5 mole/l, pH 7.4
Description: 4. Determination of Anti-PAF Activity In Vitro
PAF (=Platelet Activating Factor) is a phospholipid mediator which has many effects. Activation of platelet aggregation induces protracted broncho-contraction and hyper-reactivity of the air paths.
In this test the effect of the test substances on platelet aggregation induced by adding PAF to a suspension of platelets obtained from rabbit blood is investigated using the method described by Mikashima et al. (Jap. J. Pharmacol. 44 (1987) 387-391).
A suspension of platelets obtained from rabbit blood containing 4×10^9 platelets/ml in a modified Tyrode buffer solution (=Tyrode solution with 1.3 mM/l CaCl2 and 2.5 g/l gelatine added) adjusted to pH 7.4 was used. Tyrode solution is an aqueous solution containing 136.9 mmoles NaCl, 2.68 mmoles KCl, 2.31 mmoles CaCl2, 1.0 mmole MgCl2, 11.9 mmoles NaHCO3, 1.45 mmoles NaH2 PO4 and 5.55 mmoles glucose per liter. The platelets were obtained from 10 ml blood samples from each of three rabbits (New Zealand hybrids, body weight 3-4 kg). For this the blood samples were treated with ethylenediamine tetraacetic acid and washed according to the method of Artley et al. (Brit. J. Hematol. 19 (1970), 7-17). A platelet-rich plasma was then initially separated by centrifuging (20 minutes at 400×g). The blood platelets were separated from the plasma by recentrifuging for 15 minutes at 1,400×g. The platelets remaining as sediment after centrifuging were resuspended in a Tyrode buffer solution (but without calcium). 0.4 mmole of lysine acetylsalicylate was then added, and after 15 minutes the platelets were sedimented again. The sediment was resuspended in the aforementioned modified Tyrode buffer solution, and the number of platelets in the resulting suspension was adjusted to the desired content.
A 40×10^-9 molar PAF solution was used as a reagent. This solution was made from a 1.8×10^-3 molar stock solution in chloroform. For this purpose a 10 μl sample of the stock solution was evaporated to dryness and redissolved in 180 μl of the modified Tyrode solution to which 0.25% of lipid-free bovine serum albumin had been added. From this 10^-5 molar working solutions were then prepared and stored frozen. Samples of these solutions were appropriately diluted for the tests.
To carry out the test 50 μl of the platelet suspension and 10 μl of a 40×10^-5 molar solution of the compound being investigated were added with stirring (1,000 rpm) to 330 μl of the modified Tyrode buffer solution in an aggregation tube provided with a small magnetic stirrer. This corresponds to a final test substance concentration of 10^-5 mole/l. After 90 seconds preincubation time, 10 μl of the PAF preparation were added. The aggregation occurring in the aggregation tubes was measured over 4-5 minutes with the aid of a computerized aggregometer.
The aggregation which occurred in test tubes containing only platelet suspension was evaluated as 0%, whereas the aggregation which occurred in test tubes containing platelet suspension and PAF preparation was evaluated as 100%. The aggregation which still occurred during the inhibition of the PAF induced platelet aggregation due to the addition of the test substances was measured, and the resulting aggregation inhibition was calculated therefrom in %.

[2] = system: passive cutaneous anaphylaxis (PCA); experiment: Inhibition of passive cutaneous anaphylaxis (PCA) in rats; assay type: in vivo, Sprague-Dawley rats; details: Rattus norvegicus, 1 h, 2 × 10^-5 mole/kg per os, one hour before ovalbumin challenge
Protocol: (§1) 1. Determining Inhibition of Passive Cutaneous Anaphylaxis (PCA) and Histamine-Induced Anaphylactoid Cutaneous Reaction
The PCA reaction is carried out following the methods described by Goose et al. (J. N. Immunology 16 (1969), 749) and by Martin et al. (Arch. Pharmacol. 316 (1981), 186).
The IgE-rich ovalbumin antiserum used in the test was obtained from immunized Brown-Norway rats. The were immunized with an intraperitoneal injection of a mixture of 100 μg of ovalbumin with a Bordetella pertussis suspension (Vaxicoq™, Manufactured by Institute Merieux, containing 5×10^9 organisms and 1.25 mg Al(OH)3). After 20 days the animals were re-immunized with a further intraperitoneal injection of a solution of 10 μg ovalbumin in 0.5 ml physiological saline solution. After a further four days the blood was removed from the animals and centrifuged. The resulting antiserum was stored at -20° C. until use.
(§2) The inhibition of the passive cutaneous anaphylaxis and of the anaphylactoid cutaneous reaction induced by histamine was determined as follows:
(§3) Sprague-Dawley rats having a body weight of 150-180 g were injected intradermally in one flank with 50 μl of a 1:75 dilution of the IgE-rich ovalbumin antiserum in physiological saline solution to passively sensitize them to ovalbumin.
(§4) 24 hours after sensitization a solution of 8.25 mg/kg of ovalbumin and 26.4 mg/kg of a blue dye (Evans's Blue) was administered to the rats intravenously according to Martin et al. to trigger passive cutaneous anaphylaxis.
(§5) On the day of the experiment the test substances were dissolved in distilled water which contained 1 vol. % dimethylformamide and 1 vol. % of Tween™ 20 (=polyoxyethylene (20) sorbitan monolaurate). One hour before administration of the ovalbumin challenge, each animal was orally administered 2×10^-5 mole/kg of test substance in 0.5 ml of solution. For comparison purposes a control group received only the solvent.
(§6) The edematous anaphylactic (PCA) and anaphylactoid (histamine-induced) reactions caused by the stimulation of the intravenous ovalbumin injection, which manifested themselves by edema formation, swelling and exudation of blue dye, were evaluated 30 minutes after their initiation by the intravenous ovalbumin injection. This was done by visually determining the extent to which the blue dye emerged at the sites of edema formation. The percentage inhibition of anaphylactic and anaphylactoid reactions induced by the test substances in comparison with the reactions of the control animals not treated with any test substance was determined using comparison scales.
(§7) The results obtained using compounds of formula I according to the foregoing test methods are shown in the following Table A. The example numbers given for the compounds of formula I relate to the subsequent preparative examples.

[3] = system: histamine-induced anaphylactoid cutaneous reaction; experiment: Inhibition of histamine-induced anaphylactoid cutaneous reaction in rats; assay type: in vivo, Sprague-Dawley rats; details: Rattus norvegicus, 1 h, 2 × 10^-5 mole/kg per os, one hour before ovalbumin challenge
Protocol: as §1, §2, §3, §4
To determine the histamine-induced anaphylactoid skin reaction, the animals are injected intradermally in the flank opposite to the antiserum administration with 50 μl of a physiological saline solution containing 0.8 mg/ml histamine directly before the intravenous injection of the solution containing the ovalbumin and the blue dye.
as §5, §6, §7

[4] = 0.5 min, after 30 seconds, read-out: % inhibition of histamine-induced ileum contractions after 30 seconds
[5] = 10 min, after 10 minutes (after washing), read-out: % inhibition of histamine-induced ileum contractions after 10 minutes

T1 sequence (P31389 whole entry): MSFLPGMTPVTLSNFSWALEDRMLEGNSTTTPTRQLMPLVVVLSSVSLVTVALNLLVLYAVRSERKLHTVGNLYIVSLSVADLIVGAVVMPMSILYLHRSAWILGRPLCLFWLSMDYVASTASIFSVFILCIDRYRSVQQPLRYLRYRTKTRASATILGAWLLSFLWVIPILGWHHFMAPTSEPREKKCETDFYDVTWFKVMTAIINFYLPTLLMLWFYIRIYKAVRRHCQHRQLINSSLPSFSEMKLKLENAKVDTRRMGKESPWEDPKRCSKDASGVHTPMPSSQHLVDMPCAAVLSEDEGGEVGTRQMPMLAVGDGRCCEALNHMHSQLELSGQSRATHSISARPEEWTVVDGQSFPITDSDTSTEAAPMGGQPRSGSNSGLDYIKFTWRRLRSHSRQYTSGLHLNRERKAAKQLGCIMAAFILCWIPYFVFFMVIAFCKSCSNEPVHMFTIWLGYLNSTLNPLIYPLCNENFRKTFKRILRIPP

SMILES	Minimum toxic dose (mice) [mg/kg]	inhibition at 1 µM (histamine-(H1)-receptor; [4]) [%]	inhibition at 1 µM (histamine-(H1)-receptor; [5]) [%]	inhibition at 10 µM [1] [%]	inhibition in vivo at 20 µmol/kg [2] [%]	inhibition in vivo at 20 µmol/kg [3] [%]
Cc1ccnc(N2CCN(CCCCC3Sc4ccccc4NC3=S)CC2)c1 (centres unmarked) [Example 2, 2-{4-[4-(4-methylpyridin-2-yl)-piperazin-1-yl]butyl}-2H-1,4-benzothiazine-3(4H) -thione]	> 300	51	60	60	–	–
Cc1ccnc(N2CCN(CCCCC3Sc4ccccc4N(C)C3=O)CC2)c1 (centres unmarked) [Example 3, 4-methyl-2-{4-[4-(4-methylpyridin-2-yl)-piperazin-1-yl]butyl}-2H-1,4-benzothiazine-3(4H)-one]	–	66	28	–	80	55
Cc1ccnc(N2CCN(CCCC3Sc4cc(C)ccc4NC3=O)CC2)c1 (centres unmarked) [Example 10]	–	42	36	74	70	35
O=C1Nc2ccccc2SC1CCCCN1CCN(c2ncccn2)CC1 (centres unmarked) [Example 12]	300	–	–	–	80	50
Cc1ccc(N2CCN(CCCCC3Sc4ccccc4NC3=O)CC2)nc1 (centres unmarked) [Example 13]	100	42	15	–	55	30
COc1cccc(N2CCN(CCCCC3Sc4ccccc4NC3=O)CC2)n1 (centres unmarked) [Example 16]	300	30	27	–	50	45
O=C1Nc2ccccc2SC1CCCCN1CCN(c2ccccn2)CC1 (centres unmarked) [Example 17]	–	–	–	–	70	35
Cc1ccnc(N2CCN(CCCCC3Sc4cc(F)ccc4NC3=O)CC2)c1 (centres unmarked) [Example 18]	–	78	83	76	80	53
COc1ccc2c(c1)SC(CCCCN1CCN(c3cc(C)ccn3)CC1)C(=O)N2 (centres unmarked) [Example 19, 7-methoxy-2-{4-[4-(4-methylpyridin-2-yl)-piperazin-1-yl]-butyl}-2H-1,4-benzothiazine-3(4H)-one]	–	60	42	–	80	60
Cc1ccnc(N2CCN(CCCCC3Sc4cc(C)c(C)cc4NC3=O)CC2)c1 (centres unmarked) [Example 21]	–	50	89	37	78	55
Cc1ccnc(N2CCN(CCCCC3Oc4ccc(Cl)cc4NC3=O)CC2)c1 (centres unmarked) [Example 23]	–	70	83	–	–	–
Cc1ccnc(N2CCN(CCCCC3Oc4ccc(C)cc4NC3=O)CC2)c1 (centres unmarked) [Example 24]	–	70	86	–	80	60
Cc1ccnc(N2CCN(CCCCC3Sc4cc(O)ccc4NC3=O)CC2)c1 (centres unmarked) [Example 25]	–	50	32	–	50	15
Cc1ccnc(N2CCN(CCCCC3Sc4cc(Cl)ccc4NC3=O)CC2)c1 (centres unmarked) [Example 27]	–	16	72	35	60	35
CCCCN1C(=O)C(CCCCN2CCN(c3cc(C)ccn3)CC2)Sc2ccccc21 (centres unmarked) [Example 28]	–	38	45	45	65	40
